# Laboratory results published in patent US11612601B1, “Targeting epidermal growth factor to treat vascular calcification” (THE FLORIDA INTERNATIONAL UNIVERSITY BOARD OF TRUSTEES, priority 2022, dated 2023).
# Key:
# Osteoblasts (hFOB 1.19) = experiment: Osteoblast osteogenic gene expression, intracellular TNAP activity and CAV1; assay type: cell-based, human; settings: 7 days
# Description: Osteoblasts (from human fetus, hFOB 1.19, ATCC, CRL-11372) were cultured and grown in DMEM containing 10% v/v bovine calf serum and 1% v/v penicillin-streptomycin. Osteoblasts (passage 4-6) were harvested using 0.25% trypsin-EDTA solution (Caisson Labs, TRL01), seeded with a density of 5,200 cell.cm^−2, and incubated for 24 hours at 37° C. and 5% CO2 with controlled humidity. The cells were treated in three groups of control, OS, and OS supplemented with tyrphostin AG1478 (2.5 μM) for 21 days and media changed every three days. […] Similar to the VSMC experiments, EV-free media were added to the cultures on days 6, 13, and 20, and collected 24 hours later on days 7, 14, and 21. Collected media were centrifuged at 1,000×g for 5 min to remove cell debris. EVs were isolated using the ultracentrifugation at 100,000×g for 1 hour.
# Following 7 or 14 days of treatment with control, OS, and OS plus EGFR inhibitor media, VSMCs and osteoblasts were lysed in 1 mL TRIzol solution (Invitrogen, 15596018). Total RNA was isolated according to the manufacturer's protocol. To perform the quantitative real time polymerase chain reaction (qRT-PCR), Power SYBR Green RNA-to-CT 1-Step Kit (Applied Biosystems, 4391178) was used. 50 ng isolated template RNA were added to each reaction for qRT-PCR. The results were normalized relative to Glyceraldehyde 3-phosphate dehydrogenase (GAPDH) expression level as the housekeeping control. The relative gene expression levels were calculated using comparative CT method, considering control groups as the reference.
# The following human primer sequences were purchased from Integrated DNA Technologies (IDT); GAPDH Forward: […] (SEQ ID NO: 1) and Reverse: […] (SEQ ID NO: 2); RUNX2 Forward: […] (SEQ ID NO: 3) and Reverse: […] (SEQ ID NO: 4); ALPL Forward: […] (SEQ ID NO: 5) and Reverse: […] (SEQ ID NO: 6); Osteocalcin Forward: TCACACTCCTCGCCCTATT (SEQ ID NO: 7) and Reverse: […] (SEQ ID NO: 8).
# To assess the activity of intracellular tissue non-specific alkaline phosphatase (TNAP), a colorimetric assay kit (BioVision, K412) was used. VSMCs (n=3) after 14 days and osteoblasts (n=3) after 7 days, were lysed in 120 μL assay buffer. 80 μL of each sample were mixed with 50 μL of 5 mM pNPP solution and incubated for 60 min at 25° C. The colorimetric change resulting from the reaction was detected using a plate reader to measure absorbance at 405 nm. The results were normalized to the total protein for associated samples measured by a BCA protein assay (BioVision, K813).
# VSMCs, osteoblasts, isolated EVs (either from cells or mouse aortas), and matrix vesicles (from osteoblasts) were lysed in RIPA lysis and extraction buffer supplemented with protease inhibitor. After adding Laemmli SDS-sample buffer (1:4 v/v, Boston BioProducts, BP-110R) to each lysate, the samples were denatured at 100° C. for 10 min, loaded into 7.5-12% 1-mm SDS-PAGE gel (15 to 20 μg protein per lane), and run at 170 V. The proteins were then transferred to Trans-Blot turbo nitrocellulose membranes (BIO-RAD, 1704158) at 25 V for 7 min.
# To quantify the total protein, the membranes were stained using 2% w/v Ponceau stain (Alfa Aesar, AAJ6074409) for 20 min, followed by one wash with 5% acetic acid and milliQ water for 5 min. After imaging, the intensity of each lane was measured in ImageJ for total protein normalization. Membranes were blocked with 5% w/v bovine serum albumin (HyClone, SH30574.01) in TBS-Tween (1×) for 1 hour. […]
# CKD mice = experiment: Chronic kidney disease and vascular calcification mouse model (OsteoSense calcium tracer in aorta); assay type: in vivo; settings: for vascular calcification (calcium tracer OsteoSense visualization, aorta): daily oral gavage 10 mg/kg for two weeks, vs CKD vehicle, 10 mg/kg
# From the text: The in vivo study was approved by the Institutional Animal Care and Use Committee (IACUC) at Florida International University under protocol AN20-006 and conformed to current NIH guidelines. 8-week-old wild type C57BL/6J mice (n=38, 19 per biological sex) were fed an adenine-supplemented diet (0.2%, TestDiet, Richmond, Ind.) for 6 weeks to induce severe kidney injury. The mice then received a diet containing 1.8% phosphate (TestDiet, Richmond, Ind.) and 0.2% adenine for an additional two weeks to induce medial calcinosis.
# Along with this calcifying diet, a group of mice (n=19) received daily tyrphostin AG1478 (10 mg/kg mouse, Millipore Sigma, T4182) via oral gavage. The remaining mice (n=19) received vehicle treatment (1% w/v, carboxymethylcellulose sodium salt, Sigma, C5678). For non-diseased controls, a third group of mice (n=12, 6 per biological sex) were fed a regular chow diet and received the vehicle for the final two weeks. During the oral gavage, animals were partially anesthetized using isoflurane (1%, Patterson Veterinary, 07-893-1389, in 2 L.min^−1 oxygen flow). All animals received a tail vein injection with the calcium tracer OsteoSense 680EX (80 nmol/kg mouse, PerkinElmer, NEV10020EX) 48 hours prior to euthanization. At study endpoint, mice were anesthetized with isoflurane (1%, in 2 L.min^−1 oxygen flow) followed by retro-orbital bleeding for blood collection. Mice were then immediately euthanized by laceration of the diaphragm before tissue collection. After resection, the aortas were imaged using a near-infrared scanner (LI-COR Odyssey) to visualize the vascular calcification burden. A custom MATLAB script quantified the total area of the calcium tracer, which was normalized to the total scanned aorta area.
compound,measurement,setting,value
"COc1cc2ncnc(Nc3cccc(Cl)c3)c2cc1OC [AG1478, tyrphostin AG1478]",Gene expression of ALPL in osteoblasts,"Osteoblasts (hFOB 1.19); OS + 2.5 μM vs OS, p=0.9",no significant differences
same,Gene expression of Osteocalcin (BGLAP) in osteoblasts,"Osteoblasts (hFOB 1.19); OS + 2.5 μM vs OS, p=0.9",no significant differences
same,Gene expression of RUNX2 in osteoblasts,Osteoblasts (hFOB 1.19); OS + 2.5 μM,downregulation
same,intracellular TNAP activity in osteoblasts,Osteoblasts (hFOB 1.19); OS + 2.5 μM,significantly increased
same,intracellular CAV1 protein in osteoblasts,"Osteoblasts (hFOB 1.19); OS + 2.5 μM, compared to control group, p=0.01",significantly increased
same,Quantification of the OsteoSense intensity (vascular calcification),"CKD mice; CKD mice, 10 mg/kg daily, two weeks, vs CKD, p≤0.001",significant reduction
same,"vascular calcification (calcium tracer OsteoSense visualization, aorta)",CKD mice; CKD mice,reduced calcium burden
same,"vascular calcification (calcium tracer OsteoSense visualization, aorta)","CKD mice; CKD mice, listed as EGFR inhibitor",dramatically reduced
same,survival rate,CKD mice; CKD mouse model,100%
